Legend:
[1] = ABTS radical-scavenging antioxidant assay; details: mean ± SD of three independent experiments
Experimental: Total free radical-scavenging capacity of the compounds was determined by ABTS^.+ [2,2′-azinobis-(3-ethylbenzothiazoline-6-sulfonic acid)] method using Trolox as antioxidant standard, as previously reported.

NSC-34 cells = assay: MTT cell viability assay; format: cell-based, Mouse; details: 0–100 μM, 24 h, at the concentration in which eqBChE activity was inhibited
Experimental: After obtaining encouraging results from the inhibitory assay experiments, biosafety effectiveness of the two promising compounds (15 and 17) was further evaluated. Cells were treated with different concentration of each compound (0–100 μM) for 24 h and their potential cytotoxic effect on NSC-34 cells was determined by using MTT assay. Viability of the cells treated with the compounds 15 and 17 and comparison to the control cells were performed (Fig. 4).
Mouse motor neuron like cell line (NSC-34) was purchased from the American Type Culture Collection (ATCC, Manassas, Virginia, USA). The cells were cultured in Dulbecco’s Modified Eagle Medium (DMEM) containing 10% fetal bovine serum (FBS; Gibco, NY, USA), and 1% penicillin/streptomycin at 37 °C in a humidified atmosphere with 5% CO2. Cell viability was detected by the colorimetric 3-(4,5-dimethylthiazol-2-yl)-2,5-diphenyltetrazolium bromide (MTT) assay. This is a colorimetric assay for measuring the activity of mitochondrial enzymes in living cells that convert MTT into purple formazan crystals. Briefly, cells were seeded in a 96-well plate (10^4 cells/well) and incubated with samples at concentration ranging from 10 to 100 μM for […]. […] The resulting violet formazan precipitates were dissolved in isopropanol and the absorbance of each well was determined at 590 nm using a microplate reader with a 630 nm reference.

hBChE = biological target: T1, hBChE (Homo sapiens, UniProt P06276); assay: Cholinesterase assay (Ellman's method), hBChE; format: biochemical; details: for IC50: mean ± SD, n = 3; for hBChE inhibitory activity, times more active than galantamine: relative to reference compound galantamine, same assay conditions
T1 construct: butylcholinesterase was from equine serum (eqBChE) or human serum (hBChE); purchased Sigma-Aldrich; host or cells: human serum
T1 sequence (P06276 29-602): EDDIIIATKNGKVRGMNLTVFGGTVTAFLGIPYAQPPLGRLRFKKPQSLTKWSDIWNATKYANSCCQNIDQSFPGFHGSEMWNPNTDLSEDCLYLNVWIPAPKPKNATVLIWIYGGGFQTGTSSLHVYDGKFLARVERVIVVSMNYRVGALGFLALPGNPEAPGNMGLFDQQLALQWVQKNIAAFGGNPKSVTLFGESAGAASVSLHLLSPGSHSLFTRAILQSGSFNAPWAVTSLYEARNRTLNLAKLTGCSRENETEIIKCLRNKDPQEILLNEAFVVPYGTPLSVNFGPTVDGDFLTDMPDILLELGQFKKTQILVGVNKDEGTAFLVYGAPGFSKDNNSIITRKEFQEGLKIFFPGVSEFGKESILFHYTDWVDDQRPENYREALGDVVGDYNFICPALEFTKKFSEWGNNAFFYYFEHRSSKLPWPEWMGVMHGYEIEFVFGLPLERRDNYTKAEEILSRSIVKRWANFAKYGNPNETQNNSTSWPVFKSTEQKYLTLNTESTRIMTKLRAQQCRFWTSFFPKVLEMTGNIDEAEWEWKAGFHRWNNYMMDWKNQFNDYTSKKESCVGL
Experimental: (§1) The enzymes and reagents for biochemical assays were obtained from Sigma-Aldrich. Kinetic assays of cholinesterase activity were performed using Ellman’s method and analyzed as previously described. Briefly, in the microplate assay the reaction mixture contained phosphate buffer (0.1 M, pH 8.0), AChE or BChE solution (0.3 or 0.15 U/mL respectively), 5,5′-dithiobis-(2-nitrobenzoic) acid (DTNB; 1.5 mM), and inhibitor dissolved in 1% DMSO at the desired concentrations or DMSO alone (control) in a final volume of 0.2 mL. […] The activity of the enzymes was performed at 25 °C.
(§2) Acetylcholinesterase was from Electrophorus electricus (EeAChE), while butylcholinesterase was from equine serum (eqBChE) or human serum (hBChE).
(§3) IC50 values were calculated by the interpolation of dose-response curves using GraphPad Prism 6 (Graphpad Software, San Diego, California, USA).

EeAChE = biological target: T2, EeAChE (Electrophorus electricus, UniProt O42275); assay: biochemical; format: biochemical; details: for IC50: mean ± SD, n = 3
T2 construct: purchased Sigma-Aldrich
T2 sequence (O42275 24-633): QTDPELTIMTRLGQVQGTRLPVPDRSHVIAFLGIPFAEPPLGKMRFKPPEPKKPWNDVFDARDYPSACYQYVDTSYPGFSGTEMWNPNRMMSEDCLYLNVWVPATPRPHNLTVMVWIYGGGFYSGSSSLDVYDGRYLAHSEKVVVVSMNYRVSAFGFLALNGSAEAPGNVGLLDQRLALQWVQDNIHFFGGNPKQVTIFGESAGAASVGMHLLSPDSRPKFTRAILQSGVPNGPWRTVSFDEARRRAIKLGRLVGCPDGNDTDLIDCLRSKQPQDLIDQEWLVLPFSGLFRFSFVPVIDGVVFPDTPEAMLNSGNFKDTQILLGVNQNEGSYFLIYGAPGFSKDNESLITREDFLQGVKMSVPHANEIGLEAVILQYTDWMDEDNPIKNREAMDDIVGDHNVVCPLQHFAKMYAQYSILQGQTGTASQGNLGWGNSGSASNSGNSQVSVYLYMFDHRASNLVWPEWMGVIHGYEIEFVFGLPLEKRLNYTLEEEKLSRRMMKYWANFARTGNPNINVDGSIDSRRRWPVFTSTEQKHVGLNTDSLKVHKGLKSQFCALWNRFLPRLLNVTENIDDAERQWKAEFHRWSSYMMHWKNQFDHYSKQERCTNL
Experimental: as §1, §2, §3

eqBChE [2] = biological target: T3, eqBChE (Equus caballus, UniProt P81908); assay: biochemical; format: biochemical; details: for Selectivity to eqBChE: IC50 for AChE/IC50 for BChE; for IC50: mean ± SD, n = 3
T3 construct: butylcholinesterase was from equine serum (eqBChE); purchased Sigma-Aldrich; host or cells: equine serum
T3 sequence (P81908 whole entry): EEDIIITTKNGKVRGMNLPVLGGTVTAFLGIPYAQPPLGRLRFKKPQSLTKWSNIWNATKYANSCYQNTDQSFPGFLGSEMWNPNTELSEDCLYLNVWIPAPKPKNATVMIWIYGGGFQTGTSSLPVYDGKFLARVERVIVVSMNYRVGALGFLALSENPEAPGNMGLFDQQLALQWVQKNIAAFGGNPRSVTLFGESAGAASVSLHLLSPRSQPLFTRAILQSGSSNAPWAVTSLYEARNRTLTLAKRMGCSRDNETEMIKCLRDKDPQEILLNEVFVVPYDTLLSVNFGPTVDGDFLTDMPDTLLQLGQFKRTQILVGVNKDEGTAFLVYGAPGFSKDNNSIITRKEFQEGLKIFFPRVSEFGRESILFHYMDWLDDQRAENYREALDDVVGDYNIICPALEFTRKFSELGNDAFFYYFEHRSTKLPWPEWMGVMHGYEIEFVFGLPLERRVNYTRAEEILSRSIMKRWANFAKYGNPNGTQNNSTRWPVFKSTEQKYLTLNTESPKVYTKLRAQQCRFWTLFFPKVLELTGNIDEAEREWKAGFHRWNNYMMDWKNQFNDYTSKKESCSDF
Experimental: as §1, §2, §3

eqBChE [3] = biological target: T3, eqBChE; assay: Kinetic study of eqBChE inhibition (Lineweaver-Burk plots); format: biochemical; details: for type of inhibition: Lineweaver-Burk plot analysis; for KIS (binding with the enzyme-substrate complex): secondary plot of 1/Vmax versus compound concentration; for KIS (binding with the enzyme-substrate complex) / Ki: substrate BTCI; for Ki: secondary plot of slope (Km/Vmax) versus compound concentration, read-out: KI (binding with the free enzyme)
Experimental: . Further to evaluate the selective characteristics and type of inhibition, we investigated the kinetic behaviour of eqBChE at different concentration of S-butyrylthiocholine iodide (BTCI) and inhibitors by Lineweaver-Burk plot analysis (Fig. 2).
The enzymes and reagents for biochemical assays were obtained from Sigma-Aldrich. Kinetic assays of cholinesterase activity were performed using Ellman’s method and analyzed as previously described. Briefly, in the microplate assay the reaction mixture contained phosphate buffer (0.1 M, pH 8.0), AChE or BChE solution (0.3 or 0.15 U/mL respectively), 5,5′-dithiobis-(2-nitrobenzoic) acid (DTNB; 1.5 mM), and inhibitor dissolved in 1% DMSO at the desired concentrations or DMSO alone (control) in a final volume of 0.2 mL. Finally, acetylthiocholine iodide (ATCI) or S-butyrylthiocholine iodide (BTCI) (1.5 mM) as the substrate was added to the reaction mixture and the absorbance immediately monitored at 405 nm. The activity of the enzymes was performed at 25 °C.
Kinetic characterization was performed by constructing Lineweaver-Burk plots by plotting 1/V vs 1/[S] in the presence of different concentrations of inhibitor and substrate. Kinetics constants were determined by the replots of the Slopes (KM/Vmax) or 1/Vmax versus the inhibitor concentration.

BChE = details: previous study ref 34; cited from earlier work

Structure (SMILES) | EC50 [1] [µM] | IC50 (EeAChE) [µM] | Selectivity to eqBChE (eqBChE [2]) | IC50 (eqBChE [2]) [µM] | also measured
Oc1cc(O)cc(-c2cc3cccc(Cl)c3o2)c1 [Compound 15] | 14.9 | ≥ 100 | >16.0 | 6.23 ± 0.43 | cytotoxic effect (NSC-34 cells): no considerable cytotoxic effect; IC50 (hBChE): 27.5 ± 1.82 µM; hBChE inhibitory activity, times more active than galantamine (hBChE): 2 times; type of inhibition (eqBChE [3]): mixed-type inhibitor; KIS (binding with the enzyme-substrate complex) (eqBChE [3]): 8.66 µM; Ki (eqBChE [3]): 13.9 µM
Oc1cc(-c2cc3cc(Cl)ccc3o2)cc(O)c1O [Compound 23] | 12.5 ± 0.44 | 30 ± 2.8 | 0.78 | 38.2 ± 2.4 | –
Oc1cc(-c2cc3cccc(Cl)c3o2)cc(O)c1O [Compound 22] | 26.3 ± 1.46 | 50 ± 3.3 | 1.9 | 25.7 ± 1.6 | –
Oc1cc(-c2cc3cc(Br)ccc3o2)cc(O)c1O [Compound 25] | 9.46 ± 0.68 | 25 ± 1.9 | 0.90 | 27.6 ± 1.9 | –
Cc1c(C)c2c(c(C)c1O)CCC(C)(C(=O)O)O2 (stereo not drawn) [Trolox, reference compound] | 13 ± 1.1 | – | – | – | –
Oc1cc(-c2cc3cccc(Br)c3o2)cc(O)c1O [Compound 24] | 15.4 ± 0.81 | 37 ± 2.6 | 2.0 | 18.4 ± 0.93 | –
Oc1cc(O)cc(-c2cc3cc(Cl)ccc3o2)c1 [Compound 16] | 17.6 ± 0.82 | 80 ± 7.3 | 2.2 | 36.6 ± 2.9 | –
Oc1cc(O)cc(-c2cc3cc(Br)ccc3o2)c1 [Compound 18] | 17.5 ± 0.93 | 66 ± 4.2 | 2.2 | 30 ± 2.7 | –
Oc1cc(-c2cc3ccccc3o2)cc(O)c1O [Compound 28] | 52.8 ± 2.43 | > 100 | – | > 100 | cholinesterase inhibitory activity (EeAChE) (EeAChE): did not exert any cholinesterase inhibitory activity; cholinesterase inhibitory activity (eqBChE) (eqBChE [2]): did not exert any cholinesterase inhibitory activity
Cc1cccc2cc(-c3cc(O)c(O)c(O)c3)oc12 [Compound 26] | 6.6 ± 0.24 | 66 ± 5.4 | 3.3 | 19.8 ± 1.2 | –
Cc1cccc2cc(-c3cc(O)cc(O)c3)oc12 [Compound 19] | 19.3 ± 1.43 | > 100 | >10.0 | 10 ± 0.96 | –
Cc1ccc2oc(-c3cc(O)cc(O)c3)cc2c1 [Compound 20] | 18.2 ± 0.86 | > 100 | >8.0 | 12.5 ± 1.29 | –
Oc1cc(O)cc(-c2cc3ccccc3o2)c1 [Compound 21] | 23.2 ± 1.54 | > 100 | >4.0 | 25.2 ± 1.3 | –
Cc1ccc2oc(-c3cc(O)c(O)c(O)c3)cc2c1 [Compound 27] | 8.93 ± 0.57 | ≥ 100 | >6.2 | 16.1 ± 1.05 | –
Oc1cc(O)cc(-c2cc3cccc(Br)c3o2)c1 [Compound 17] | 16.7 ± 1.31 | 100 ± 6.1 | 28.0 | 3.57 ± 0.25 | cytotoxic effect (NSC-34 cells): no considerable cytotoxic effect; IC50 (hBChE): 27.5 ± 1.53 µM; hBChE inhibitory activity, times more active than galantamine (hBChE): 2 times; eqBChE inhibitory activity, times more active than galantamine (eqBChE [2]; relative to reference compound galantamine): ~8 times; type of inhibition (eqBChE [3]): non-competitive inhibitor; KIS (binding with the enzyme-substrate complex) (eqBChE [3]): 4.7 µM; Ki (eqBChE [3]): 4.3 µM
